Data on 11 compounds can be found in ChEMBL document CHEMBL1201862, “PubChem BioAssay data set” (2004).

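Each compound was tested at five concentrations against cells in 96-well plates for 48 hours. GI50: concentration for 50% inhibition of growth.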 Calls of active or inactive are those of the source. Cut-off read from the data, not from the text of the source: active = GI50 up to about 1.1 µM and inactive = higher.

Some test systems named below: NCI-H522; SF-295; HCC 2998; Hs-578T; SK-OV-3; RXF 393; BT-549; MCF7; HCT-15; PC-3; HOP-62; A549; OVCAR-5; SW-620; MDA-MB-231; M14; UACC-62; HL-60; EKVX.
Common to all, as to assay: NCI-60 cell line screen, 48 h

As for `CCn1c(=O)c2c3ccc(OC(C)=O)cc3[nH]c2c2ccc(OC(C)=O)cc21`, the GI50 was 37.2 µM (inactive) with NCI-H522; 36.1 µM (inactive) in the test with SF-295; 23.7 µM (inactive) in the test on HCC 2998; 34.5 µM (inactive) in the test on Hs-578T; 44.3 µM (inactive) in the test on SK-OV-3; 34.2 µM (inactive) in the test on RXF 393. Further, the GI50 with BT-549 is 72.3 µM (inactive); with MCF7, 23.1 µM (inactive); in the test on HCT-15, 62.2 µM; in the test with PC-3, 26.9 µM (inactive); in the test with HOP-62, 58.1 µM (inactive); in the test on A549, 64.7 µM (inactive). In addition, the GI50 is > 100 µM (inactive) with OVCAR-5; 30.7 µM (inactive) with SW-620; 33.1 µM (inactive) in the test with MDA-MB-231; 45.3 µM (inactive) with M14; 24.1 µM (inactive) in the test with UACC-62.

On to `OC1(c2cc3ccccc3s2)CCCCC1`, for which the GI50 in the test on NCI-H522 was 28.1 µM (inactive); in the test on HL-60, 37.7 µM (inactive); with SF-295 it was 37.9 µM (inactive); in the test on HCC 2998, 76 µM (inactive); in the test on Hs-578T, 28.5 µM (inactive); in the test with SK-OV-3, 66.4 µM (inactive). In addition, the GI50 was 39.4 µM (inactive) in the test on RXF 393; 55.7 µM (inactive) with BT-549; 36.6 µM (inactive) in the test on MCF7; 39.1 µM in the test on HCT-15; > 100 µM (inactive) in the test with HOP-62; 40.8 µM (inactive) in the test on A549. For the same compound, the GI50 with EKVX was 33.6 µM (inactive); in the test on OVCAR-5 it was 40.8 µM (inactive); in the test on SW-620 it was 50.1 µM (inactive); in the test on MDA-MB-231 it was 30.8 µM (inactive); in the test with M14, 66.8 µM (inactive); in the test with UACC-62, 69.7 µM (inactive).

Consider `COc1ccc(N2C(=O)C3c4[nH]c5ccc(F)cc5c4C4CCC(c5ccccc5)CC4C3C2=O)cc1` (centres undefined), for which the GI50 with NCI-H522 was 13 µM (inactive); in the test with SF-295 it was 31 µM (inactive); in the test with HCC 2998, 39.9 µM (inactive); in the test with Hs-578T, 10.8 µM (inactive); with SK-OV-3, 22.5 µM (inactive); with BT-549 it was 17.3 µM (inactive). Further, the GI50 was 18.7 µM (inactive) in the test with MCF7; 19.7 µM in the test with HCT-15; 14.2 µM (inactive) in the test with PC-3; 14.3 µM (inactive) in the test on HOP-62; 11.6 µM (inactive) in the test with A549; 24.3 µM (inactive) in the test on EKVX. In addition, the GI50 with OVCAR-5 is 18.3 µM (inactive); with SW-620 it was 8.38 µM (inactive); in the test with MDA-MB-231 it was 15.3 µM (inactive); in the test with M14 it was 12.9 µM (inactive); in the test with UACC-62 it was 11.9 µM (inactive).

On to `Fc1cc(-c2ncc(Cl)cc2Cl)c2cccccc1-2`, for which the GI50 was > 100 µM (inactive) with NCI-H522; > 100 µM (inactive) in the test with SF-295; > 100 µM (inactive) in the test with HCC 2998; > 100 µM (inactive) in the test on Hs-578T; > 100 µM (inactive) with SK-OV-3; 92.5 µM (inactive) in the test on RXF 393. The GI50 was > 100 µM (inactive) in the test with BT-549; 35.7 µM (inactive) with MCF7; more than 100 µM in the test on HCT-15; > 100 µM (inactive) with PC-3; > 100 µM (inactive) in the test with HOP-62; > 100 µM (inactive) in the test on A549. The GI50 in the test with EKVX was > 100 µM (inactive); in the test on OVCAR-5 it was > 100 µM (inactive); in the test on MDA-MB-231, > 100 µM (inactive); in the test with M14, 82.6 µM (inactive); with UACC-62 it was > 100 µM (inactive).

`NS(=O)(=O)c1nnc(NC(=O)CCC(=O)O)s1`: the GI50 in the test with NCI-H522, with HL-60, with SF-295, with HCC 2998, with Hs-578T and in the test on SK-OV-3 was > 100 µM (inactive) in each case. In addition, the GI50 with RXF 393 is > 100 µM (inactive); with BT-549, > 100 µM (inactive); in the test on MCF7, > 100 µM (inactive); in the test with HCT-15, more than 100 µM; in the test on HOP-62 it was > 100 µM (inactive); in the test on A549 it was > 100 µM (inactive). For the same compound, the GI50 in the test with EKVX, in the test on OVCAR-5, in the test on SW-620, in the test on MDA-MB-231, in the test with M14 and in the test with UACC-62 was > 100 µM (inactive) throughout.

Turning to `COc1cc2c(cc1C[C@H]1[C@@H]3C[C@H]4c5c(c6ccccc6n5C)C[C@@H]([C@@H]3CO[C@]1(C)OC(C)=O)N4C)c1c(n2C)C2C[C@H]3C(C(C)=O)=COC[C@H]3[C@H](C1)N2C`, the GI50 with SF-295 was 4.67 µM (inactive); in the test with HCC 2998, 0.0102 µM (active); with Hs-578T, 2.8 µM (inactive); in the test on SK-OV-3 it was 11.1 µM (inactive); in the test on RXF 393 it was 2.58 µM (inactive); with BT-549, 3.29 µM (inactive). For the same compound, the GI50 with MCF7 is 7.48 µM (inactive); in the test with HCT-15 it was 3.13 µM; in the test with PC-3, 0.462 µM (active); in the test on HOP-62 it was 1.56 µM (inactive); in the test with A549, > 25 µM (inactive); in the test with EKVX it was 0.403 µM (active). Further, the GI50 was 4.35 µM (inactive) in the test with OVCAR-5; 4.13 µM (inactive) in the test with SW-620; 4.55 µM (inactive) with MDA-MB-231; 3.11 µM (inactive) in the test with M14; 5.11 µM (inactive) in the test with UACC-62.

Consider `Cc1cc(N(CCC#N)CCC#N)ccc1C(/N=N\c1ccc(C(=O)O)cc1)=N\NC(=O)c1cc(Cl)ccc1O`, for which the GI50 in the test with NCI-H522 was 17.1 µM (inactive); in the test on SF-295 it was 12.4 µM (inactive); in the test on HCC 2998, > 100 µM (inactive); in the test with Hs-578T, 19.7 µM (inactive); in the test with SK-OV-3, 28.2 µM (inactive); in the test on RXF 393, 25.4 µM (inactive). Moreover, the GI50 was 45.9 µM (inactive) in the test on BT-549; 32.4 µM (inactive) in the test on MCF7; more than 100 µM in the test with HCT-15; 61 µM (inactive) in the test with PC-3; 27 µM (inactive) in the test on HOP-62; 42.2 µM (inactive) in the test with A549. For the same compound, the GI50 with EKVX was 33 µM (inactive); in the test with OVCAR-5, > 100 µM (inactive); in the test with MDA-MB-231, 26.6 µM (inactive); in the test with M14, > 100 µM (inactive); with UACC-62 it was 31.1 µM (inactive).

With `[N-]=[N+]=Nc1c(-c2ccccc2)c(Cl)nc2ccccc12`, the GI50 was 18.1 µM (inactive) in the test with NCI-H522; 56.2 µM (inactive) with HL-60; 22.8 µM (inactive) in the test with SF-295; 44.2 µM (inactive) in the test on HCC 2998; 44.2 µM (inactive) with Hs-578T; 86.3 µM (inactive) with SK-OV-3. The GI50 in the test on RXF 393 is 51.6 µM (inactive); with BT-549, 23.2 µM (inactive); in the test on HCT-15, 28.4 µM; with PC-3 it was 26.2 µM (inactive); with HOP-62, 34.1 µM (inactive); with A549 it was 29.9 µM (inactive). Also, the GI50 with EKVX was 33 µM (inactive); with OVCAR-5, > 100 µM (inactive); in the test with SW-620, 35.4 µM (inactive); with MDA-MB-231, 31.8 µM (inactive); with M14, 46 µM (inactive).

For the compound `CO/N=C(\C(=O)N(C)n1cnnc1)c1csc(NC(c2ccccc2)(c2ccccc2)c2ccccc2)n1`, the GI50 in the test on NCI-H522, in the test on HL-60, in the test on SF-295, with HCC 2998, with Hs-578T and in the test with SK-OV-3 was > 10 µM (inactive) throughout. In addition, the GI50 was > 10 µM (inactive) with RXF 393; > 10 µM (inactive) in the test on BT-549; > 10 µM (inactive) with MCF7; more than 10 µM in the test on HCT-15; > 10 µM (inactive) in the test with PC-3; > 10 µM (inactive) with HOP-62. The GI50 in the test on A549, in the test on EKVX, with OVCAR-5, with SW-620 and with M14 was > 10 µM (inactive) throughout.

In the case of `CCOC(=O)NN(C(=O)OCC)C(C(=O)C1=CCCCC1)N(NC(=O)OCC)C(=O)OCC`, the GI50 in the test with NCI-H522, with SF-295, in the test on HCC 2998, in the test with Hs-578T, in the test with SK-OV-3 and in the test on RXF 393 was > 100 µM (inactive) throughout. Besides, the GI50 in the test with BT-549 is > 100 µM (inactive); in the test on MCF7, > 100 µM (inactive); with HCT-15, more than 100 µM; in the test on PC-3, > 100 µM (inactive); with HOP-62 it was > 100 µM (inactive); with A549 it was > 100 µM (inactive). Moreover, the GI50 with EKVX, in the test with OVCAR-5, in the test with SW-620, in the test on MDA-MB-231 and in the test on M14 was > 100 µM (inactive) each time.

`COc1ccc2[nH]c3c(c2c1)CCc1c(OC)cccc1-3`: the GI50 in the test on NCI-H522 was 87.1 µM (inactive); with SF-295, > 100 µM (inactive); in the test with HCC 2998, > 100 µM (inactive); with Hs-578T it was 39.7 µM (inactive); in the test with SK-OV-3 it was > 100 µM (inactive); with BT-549 it was > 100 µM (inactive). Moreover, the GI50 is > 100 µM (inactive) in the test on MCF7; more than 100 µM in the test on HCT-15; > 100 µM (inactive) in the test with PC-3; 53.8 µM (inactive) in the test with HOP-62; > 100 µM (inactive) in the test with A549; > 100 µM (inactive) in the test on EKVX. Besides, the GI50 with OVCAR-5, in the test on SW-620, in the test on MDA-MB-231, in the test with M14 and in the test on UACC-62 was > 100 µM (inactive) throughout.
